# Experimental data published in ChEMBL document CHEMBL4699409, “Synthesis, evaluation and molecular modelling of piceatannol analogues as arginase inhibitors” (RSC Med Chem, 2020).
# pIC50, pKi: −log10 of the molar value.
# Legend:
# Arginase-1 [1] = biological target: T1, Arginase-1 (Bos taurus, UniProt Q2KJ64); experiment: Inhibition of recombinant bovine liver ARGI using L-arginine as substrate incubated for 60 mins by spectroscopic analysis
# T1 sequence (Q2KJ64 whole entry): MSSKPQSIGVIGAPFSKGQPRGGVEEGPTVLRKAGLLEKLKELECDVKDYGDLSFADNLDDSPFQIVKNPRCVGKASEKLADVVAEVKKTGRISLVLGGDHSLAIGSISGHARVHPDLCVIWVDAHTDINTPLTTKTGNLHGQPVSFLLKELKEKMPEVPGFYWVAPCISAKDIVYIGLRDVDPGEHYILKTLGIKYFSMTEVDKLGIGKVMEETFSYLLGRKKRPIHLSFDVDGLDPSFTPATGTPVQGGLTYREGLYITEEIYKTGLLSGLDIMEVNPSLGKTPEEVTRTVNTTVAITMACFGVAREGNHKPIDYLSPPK
# Arginase-1 [2] = biological target: T2, Arginase-1 (Homo sapiens, UniProt P05089); experiment: Inhibition of recombinant human ARG1 expressed in CHO-K1 cells assessed as reduction in urea level incubated for 24 hrs by colorimetric assay; assay type: cell-based
# T2 sequence (P05089 whole entry): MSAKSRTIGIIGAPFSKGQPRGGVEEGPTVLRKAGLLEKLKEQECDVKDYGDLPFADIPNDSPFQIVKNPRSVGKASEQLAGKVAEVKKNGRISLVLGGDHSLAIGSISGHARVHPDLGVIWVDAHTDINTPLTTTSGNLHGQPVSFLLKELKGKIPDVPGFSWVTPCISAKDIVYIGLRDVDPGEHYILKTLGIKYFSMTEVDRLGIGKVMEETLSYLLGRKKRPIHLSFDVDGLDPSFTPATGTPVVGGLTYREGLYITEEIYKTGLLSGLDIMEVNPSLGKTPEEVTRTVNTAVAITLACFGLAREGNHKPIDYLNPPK
# Arginase-1 [3] = biological target: T1, Arginase-1; experiment: Mixed type inhibition of recombinant bovine liver ARGI using L-arginine as substrate incubated for 60 mins by Lineweaver-Burk plot analysis
# Arginase-1 [4] = biological target: T2, Arginase-1; experiment: Inhibition of recombinant human liver ARGI using L-arginine as substrate incubated for 60 mins by spectroscopic analysis
# Arginase-1 [5] = biological target: T1, Arginase-1; experiment: Mixed type inhibition of recombinant bovine liver ARGI using L-arginine as substrate incubated for 60 mins by Dixon plot analysis
# Arginase-1 [6] = biological target: T1, Arginase-1; experiment: Mixed type inhibition of recombinant bovine liver ARGI using L-arginine as substrate incubated for 60 mins by Cornish-Bowden plot analysis
Compound,pIC50 (Arginase-1 [1]),other results
Oc1ccc(CNCc2ccccc2)cc1O,3.84,
Oc1ccc(CNCc2ccc3c(c2)OCO3)cc1O,3.65,
N[C@@H](CCCCB(O)O)C(=O)O,,pIC50 (Arginase-1 [2]): 4.77
N=C(NO)NCC[C@H](N)C(=O)O [NOR-NOHA],5.57,
Oc1ccc(O)c(O)c1,3.44,
OCc1ccc(O)c(O)c1,3.97,
Oc1cc(O)cc(/C=C/c2ccc(O)c(O)c2)c1 [PICEATANNOL],4.33,pKi (Arginase-1 [3]): 3.87; pIC50 (Arginase-1 [2]): 2.93; pIC50 (Arginase-1 [4]): 4.16; pKi (Arginase-1 [5]): 3.87; pKi (Arginase-1 [6]): 3.87
O=C(O)c1cc(NCc2ccc(O)c(O)c2)ccc1O,3.73,
Oc1ccc(CNCc2cc(Cl)cc(Cl)c2)cc1O,3.56,
NCCc1ccc(O)c(O)c1 [DOPAMINE],3.89,
COC(=O)c1ccc(O)c(O)c1 [METHYL PROTOCATECHUATE],3.55,
Oc1cccc(NCc2ccc(O)c(O)c2)c1,4.08,
Oc1ccc(CNCCc2ccccc2)cc1O,3.44,
O=C(O)c1cc(O)cc(NCc2ccc(O)c(O)c2)c1,3.97,
NCc1ccc(O)c(O)c1,3.79,
Oc1ccccc1O [CATECHOL],3.91,

Compound,pIC50 (Arginase-1 [1]),other results
COc1ccc(CNCc2ccc(O)c(O)c2)cc1,3.41,
CCOC(=O)C(NCc1ccc(O)c(O)c1)C(=O)OCC,3.44,
Oc1ccc(CNCc2cccc(Cl)c2)cc1O,3.48,
COc1ccc(NCc2ccc(O)c(O)c2)cc1,3.81,
Oc1ccc(CNCCN2CCOCC2)cc1O,3.33,
Oc1ccc(CNCCc2c[nH]cn2)cc1O,3.50,
Oc1ccc(NCc2ccc(O)c(O)c2)cc1,3.62,
Oc1cc(O)cc(NCc2ccc(O)c(O)c2)c1,3.85,
Oc1ccc(CNc2ccc(O)c(O)c2)cc1O,4.12,pKi (Arginase-1 [3]): 4.09; pIC50 (Arginase-1 [2]): 3.10; pIC50 (Arginase-1 [4]): 4.05; pKi (Arginase-1 [5]): 4.09; pKi (Arginase-1 [6]): 4.09
Nc1ccc(O)c(O)c1,3.32,
COc1cccc(CNCc2ccc(O)c(O)c2)c1,3.52,
COc1cccc(NCc2ccc(O)c(O)c2)c1,3.73,
NCCCNCc1ccc(O)c(O)c1,3.46,
O=C(O)/C=C/c1ccc(O)c(O)c1 [CAFFEIC ACID],3.88,
Oc1ccc(CNc2ccccc2)cc1O,3.79,
Oc1cccc(Br)c1O,3.56,
